For 23 molecules, EC50 results are on record in patent publication US12565494B2, “Inhibitors of human respiratory syncytial virus and metapneumovirus” (priority 2022, dated 2026).

Like-named read-outs stand apart in the source and are kept apart here. Bounds are passed on as bounds.

One test relates to RSV-A2-GFP virus. The test can be described thus: microbe, parasite or virus in culture. The test is classed as cell-based, Human Respiratory Syncytial Virus. The conditions noted are these: Calu-1 cells, RSV-A2-GFP MOI=1.2, 96 hrs, GFP-expressing cells counted. In outline:
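Assay-ready frozen Calu-1 cells (20,000 cells/mL) were infected with RSV-A2-GFP at MOI 1.2 in DMEM with 2% FBS and exposed to a 10-point 3-fold compound dilution for 96 h at 37 °C. GFP-positive cells were counted by imaging, with same-well CellTiter-Glo for cytotoxicity. IC50 and CC50 came from 4-parameter logistic fits.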

For a further test, the system named is hMPV-GFP virus. In words: microbe, parasite or virus in culture. The test is classed as cell-based, Human Metapneumovirus. As to conditions: VERO cells, hMPV-GFP MOI=1.25, 48 hrs, GFP-expressing cells counted. An outline of the steps: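 VERO cells infected with GFP-expressing hMPV at MOI 1.25 and exposed to compound in 10-point 3-fold dilutions (typical final 40,300–2 nM) for 48 h at 37 °C. GFP-positive cells counted by imaging; same-well CellTiter-Glo for cytotoxicity. IC50 and CC50 from 4-parameter logistic fits.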

Where [1] appears, read: human respiratory syncytial virus, Calu-1, 96 h, read-out: RSV EC50, Table I Summary of Activities for RSV.
[2] abbreviates: read-out: RSV EC50, Table II Summary of Activities for hMPV.
Setting [3] is: Vero, 48 h, read-out: RSV EC50, Table II Summary of Activities for hMPV.
Where [4] appears, read: read-out: RSV EC50, Table I Summary of Activities for RSV.
Setting [5] is: Table I Summary of Activities for RSV, read-out: RSV EC50.
Setting [6] is: Table II Summary of Activities for hMPV, read-out: RSV EC50.

`Cn1nc(-c2cscn2)cc1C(=O)N1C[C@@H]2[C@H](C1)[C@H]2Oc1cc(C2(C)CCN2)cc(-c2ccc(F)cc2)n1` (single isomer, unassigned; enantiomer 1) [Example 55A]: the EC50 is less than 10 nM with RSV-A2-GFP virus (setting [1]) and 10 to 100 nM with hMPV-GFP virus (setting [2]).

On to `Cc1nc(-c2ncco2)sc1C(=O)N1C[C@@H]2[C@H](C1)[C@H]2Oc1cc(C(C)(C)N)cc(-c2ccc(F)cc2)n1` [Example 3, ((1R,5S,6s)-6-((4-(2-aminopropan-2-yl)-6-(4-fluorophenyl)pyridin-2-yl)oxy)-3-azabicyclo[3.1.0]hexan-3-yl)(4-methyl-2-(oxazol-2-yl)thiazol-5-yl)methanone], for which the EC50 in the test on RSV-A2-GFP virus (setting [1]) was less than 10 nM; in the test with hMPV-GFP virus (setting [3]), 10 to 100 nM.

For `Cn1nc(-c2ccon2)cc1C(=O)N1C[C@@H]2[C@H](C1)[C@H]2Oc1cc(C(C)(C)N)cc(-c2ccc(F)cc2)n1` [Example 21, ((1R,5S,6s)-6-((4-(2-aminopropan-2-yl)-6-(4-fluorophenyl)pyridin-2-yl)oxy)-3-azabicyclo[3.1.0]hexan-3-yl)(3-(isoxazol-3-yl)-1-methyl-1H-pyrazol-5-yl)methanone], the EC50 in the test on RSV-A2-GFP virus (setting [1]) is less than 10 nM; in the test with hMPV-GFP virus (setting [3]), greater than 100 nM.

Turning to `CC(N)c1cc(O[C@H]2[C@@H]3CN(C(=O)c4cc(-c5cscn5)nn4C)C[C@@H]32)nc(-c2ccc(F)cc2)c1` (single isomer, unassigned; enantiomer 2) [Example 61B], the EC50 in the test with RSV-A2-GFP virus (setting [4]) is less than 10 nM; in the test on hMPV-GFP virus (setting [2]) it was greater than 100 nM.

With `Cn1nc(-c2cscn2)cc1C(=O)N1C[C@@H]2[C@H](C1)[C@H]2Oc1cc(C(C)(C)N)cc(C2CCC(C)(C)CC2O)n1` (single isomer, unassigned; enantiomer 1) [Example 66A], the 50% effective concentration (EC50) with RSV-A2-GFP virus (setting [1]) is less than 10 nM; with hMPV-GFP virus (setting [3]), greater than 100 nM.

For the molecule `Cn1nc(-c2ncco2)cc1C(=O)N1C[C@H]2[C@H](Oc3cc(C(C)(C)N)cc(-c4ccc(F)cc4)n3)[C@@]2(C)C1` (single isomer, unassigned; enantiomer 2) [Example 44B], the EC50 was less than 10 nM with RSV-A2-GFP virus (setting [4]) and 10 to 100 nM in the test with hMPV-GFP virus (setting [2]).

As for `Cn1nc(-c2ncco2)cc1C(=O)N1C[C@@H]2[C@H](C1)[C@H]2Oc1cc(C(C)(C)N)cc(N2CCC(C)(C)CC2)n1` [Example 65, ((1R,5S,6s)-6-((4-(2-aminopropan-2-yl)-6-(4,4-dimethylpiperidin-1-yl)pyridin-2-yl)oxy)-3-azabicyclo[3.1.0]hexan-3-yl)(1-methyl-3-(oxazol-2-yl)-1H-pyrazol-5-yl)methanone], the EC50 was less than 10 nM in the test on RSV-A2-GFP virus (setting [1]) and greater than 100 nM with hMPV-GFP virus (setting [3]).

As for `Cn1nc(-c2cscn2)cc1C(=O)N1C[C@H]2[C@H](Oc3cc(C(C)(C)N)cc(N4CCC(C)(C)CC4)n3)[C@@]2(C)C1` (single isomer, unassigned; enantiomer 1) [Example 46A], the concentration giving a half-maximal response (EC50) in the test with RSV-A2-GFP virus (setting [1]) was less than 10 nM; in the test on hMPV-GFP virus (setting [3]), greater than 100 nM.

With `Cn1nc(-c2cscn2)cc1C(=O)N1C[C@@H]2[C@H](C1)[C@H]2Oc1cc(C2(N)CCCC2)cc(-c2ccc(F)cc2)n1` [Example 53, ((1R,5S,6s)-6-((4-(1-aminocyclopentyl)-6-(4-fluorophenyl)pyridin-2-yl)oxy)-3-azabicyclo[3.1.0]hexan-3-yl)(1-methyl-3-(thiazol-4-yl)-1H-pyrazol-5-yl)methanone], the results for the half-maximal effective concentration (EC50) with RSV-A2-GFP virus (setting [1]) and in the test on hMPV-GFP virus (setting [3]) were less than 10 nM and greater than 100 nM, respectively.

For the molecule `Cn1nc(-c2ncsc2F)cc1C(=O)N1C[C@@H]2[C@H](C1)[C@H]2Oc1cc(C(C)(C)N)cc(-c2ccc(F)cc2)n1` [Example 20, ((1R,5S,6s)-6-((4-(2-aminopropan-2-yl)-6-(4-fluorophenyl)pyridin-2-yl)oxy)-3-azabicyclo[3.1.0]hexan-3-yl)(3-(5-fluorothiazol-4-yl)-1-methyl-1H-pyrazol-5-yl)methanone], the EC50 in the test on RSV-A2-GFP virus (setting [1]) was less than 10 nM; with hMPV-GFP virus (setting [3]), 10 to 100 nM.

Turning to `Cc1cnc(-c2cc(C(=O)N3C[C@@H]4[C@H](C3)[C@H]4Oc3cc(C(C)(C)N)cc(-c4ccc(F)cc4)n3)n(C)n2)o1` [Example 22, ((1R,5S,6s)-6-((4-(2-aminopropan-2-yl)-6-(4-fluorophenyl)pyridin-2-yl)oxy)-3-azabicyclo[3.1.0]hexan-3-yl)(1-methyl-3-(5-methyloxazol-2-yl)-1H-pyrazol-5-yl)methanone], the EC50 was less than 10 nM with RSV-A2-GFP virus (setting [5]) and 10 to 100 nM in the test on hMPV-GFP virus (setting [6]).

Regarding `Cc1nc(-c2cccs2)sc1C(=O)N1C[C@@H]2[C@H](C1)[C@H]2Oc1cc(C(C)(C)N)cc(-c2ccc(F)cc2)n1` [Example 12, ((1R,5S,6s)-6-((4-(2-aminopropan-2-yl)-6-(4-fluorophenyl)pyridin-2-yl)oxy)-3-azabicyclo[3.1.0]hexan-3-yl)(4-methyl-2-(thiophen-2-yl)thiazol-5-yl)methanone], the figures for the 50% effective concentration (EC50) in the test on RSV-A2-GFP virus (setting [5]) and in the test on hMPV-GFP virus (setting [6]) were less than 10 nM and greater than 100 nM, respectively.

Turning to `Cn1nc(-c2cscn2)cc1C(=O)N1C[C@H]2[C@H](Oc3cc(C(C)(C)N)cc(-c4ccc(F)cc4)n3)[C@@]2(C)C1` (single isomer, unassigned; enantiomer 2) [Example 43B], the EC50 in the test with RSV-A2-GFP virus (setting [1]) was less than 10 nM; in the test with hMPV-GFP virus (setting [3]) it was greater than 100 nM.

In the case of `Cn1nc(-c2cscn2)cc1C(=O)N1C[C@H]2[C@H](Oc3cc(C(C)(C)N)cc(-c4ccc(F)cc4)n3)[C@@]2(C)C1` (single isomer, unassigned; enantiomer 1) [Example 43A], the concentration for a half-maximal effect (EC50) in the test on RSV-A2-GFP virus (setting [1]) was less than 10 nM; with hMPV-GFP virus (setting [3]), 10 to 100 nM.

In the case of `Cn1nc(-c2ncco2)cc1C(=O)N1C[C@H]2[C@H](Oc3cc(C(C)(C)N)cc(-c4ccc(F)cc4)n3)[C@@]2(C)C1` (single isomer, unassigned; enantiomer 1) [Example 44A], the concentration for a half-maximal effect (EC50) was less than 10 nM in the test on RSV-A2-GFP virus (setting [1]) and 10 to 100 nM in the test on hMPV-GFP virus (setting [3]).

Consider `Cn1nc(-c2nccs2)cc1C(=O)N1C[C@@H]2[C@H](C1)[C@H]2Oc1cc(C(C)(C)N)cc(-c2ccc(F)cc2)n1` [Example 23, ((1R,5S,6s)-6-((4-(2-aminopropan-2-yl)-6-(4-fluorophenyl)pyridin-2-yl)oxy)-3-azabicyclo[3.1.0]hexan-3-yl)(1-methyl-3-(thiazol-2-yl)-1H-pyrazol-5-yl)methanone], for which the 50% effective concentration (EC50) was less than 10 nM in the test on RSV-A2-GFP virus (setting [5]) and greater than 100 nM with hMPV-GFP virus (setting [6]).

In the case of `Cc1nc(-c2ccon2)sc1C(=O)N1C[C@@H]2[C@H](C1)[C@H]2Oc1cc(C(C)(C)N)cc(-c2ccc(F)cc2F)n1` [Example 32, ((1R,5S,6s)-6-((4-(2-aminopropan-2-yl)-6-(2,4-difluorophenyl)pyridin-2-yl)oxy)-3-azabicyclo[3.1.0]hexan-3-yl)(2-(isoxazol-3-yl)-4-methylthiazol-5-yl)methanone], the EC50 in the test on RSV-A2-GFP virus (setting [5]) is less than 10 nM; with hMPV-GFP virus (setting [6]), greater than 100 nM.

`CC(C)(N)c1cc(O[C@H]2[C@@H]3CN(C(=O)c4sc(-c5cscn5)nc4C4CC4)C[C@@H]32)nc(-c2ccc(F)cc2F)c1` [Example 34, ((1R,5S,6s)-6-((4-(2-aminopropan-2-yl)-6-(2,4-difluorophenyl)pyridin-2-yl)oxy)-3-azabicyclo[3.1.0]hexan-3-yl)(4-cyclopropyl-[2,4′-bithiazol]-5-yl)methanone]: the EC50 with RSV-A2-GFP virus (setting [5]) is less than 10 nM; in the test on hMPV-GFP virus (setting [6]) it was 10 to 100 nM.

In the case of `Cc1nc(-c2ncc[nH]2)sc1C(=O)N1C[C@@H]2[C@H](C1)[C@H]2Oc1cc(C(C)(C)N)cc(-c2ccc(F)cc2)n1` [Example 9, (2-(1H-imidazol-2-yl)-4-methylthiazol-5-yl)((1R,5S,6s)-6-((4-(2-aminopropan-2-yl)-6-(4-fluorophenyl)pyridin-2-yl)oxy)-3-azabicyclo[3.1.0]hexan-3-yl)methanone], the values for the concentration for a half-maximal effect (EC50) in the test on RSV-A2-GFP virus (setting [5]) and in the test with hMPV-GFP virus (setting [6]) were less than 10 nM and greater than 100 nM, respectively.

Turning to `Cn1nc(-c2cscn2)cc1C(=O)N1C[C@@H]2[C@H](C1)[C@H]2Oc1cc(C(N)=O)cc(-c2ccc(F)cc2)n1` [Example 47, 2-(4-fluorophenyl)-6-(((1R,5S,6s)-3-(1-methyl-3-(thiazol-4-yl)-1H-pyrazole-5-carbonyl)-3-azabicyclo[3.1.0]hexan-6-yl)oxy)isonicotinamide], the figures for the concentration for a half-maximal effect (EC50) with RSV-A2-GFP virus (setting [1]) and in the test with hMPV-GFP virus (setting [3]) were less than 10 nM and greater than 100 nM, respectively.

As to `Cn1nc(-c2cscn2)cc1C(=O)N1C[C@@H]2[C@H](C1)[C@H]2Oc1cc(C(C)(N)C(N)=O)cc(-c2ccc(F)cc2)n1` (single isomer, unassigned; ent-2) [Example 49A], the results for the concentration giving a half-maximal response (EC50) in the test on RSV-A2-GFP virus (setting [1]) and in the test with hMPV-GFP virus (setting [3]) were less than 10 nM and greater than 100 nM, respectively.

Regarding `CC(N)c1cc(O[C@H]2[C@@H]3CN(C(=O)c4cc(-c5ccon5)nn4C)C[C@@H]32)nc(-c2ccc(F)cc2)c1` (single isomer, unassigned; enantiomer 1) [Example 62A], the figures for the EC50 in the test on RSV-A2-GFP virus (setting [1]) and in the test with hMPV-GFP virus (setting [3]) were less than 10 nM and greater than 100 nM, respectively.

For `Cn1nc(-c2cscn2)cc1C(=O)N1C[C@@H]2[C@H](C1)[C@H]2Oc1cc(C2(C)CNC2=O)cc(-c2ccc(F)cc2)n1` (single isomer, unassigned; ent-3) [Example 50A], the concentration for a half-maximal effect (EC50) in the test on RSV-A2-GFP virus (setting [1]) is less than 10 nM; in the test on hMPV-GFP virus (setting [3]), greater than 100 nM.

A word on the EC50: it is the concentration that produces a half-maximal response.
